Test results from PubChem BioAssay (NCI).
Where “and” joins values, the source holds several entries; their conditions need not be identical. Equal values may be shown once.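 These data come from cells grown in 96-well plates and exposed to compound for 48 hours at five concentrations. GI50 is the concentration that inhibits growth by half. Definition used: TGI = concentration required for complete inhibition of growth.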

Tests used:
Test in all cases: NCI tumour cell line growth inhibition, 48 h
UO-31 renal = test system: UO-31 renal
SNB-19 CNS = test system: SNB-19 CNS
BT-549 breast = test system: BT-549 breast
UACC-62 melanoma = test system: UACC-62 melanoma
EKVX NSCLC = test system: EKVX NSCLC
SR leukemia = test system: SR leukemia
OVCAR-5 ovarian = test system: OVCAR-5 ovarian
HOP-92 NSCLC = test system: HOP-92 NSCLC
SN12C renal = test system: SN12C renal
CCRF-CEM leukemia = test system: CCRF-CEM leukemia

Compound	TGI (UO-31 renal)	TGI (SNB-19 CNS)	TGI (BT-549 breast)	TGI (UACC-62 melanoma)	TGI (EKVX NSCLC)	TGI (SR leukemia)	TGI (OVCAR-5 ovarian)	TGI (HOP-92 NSCLC)	TGI (SN12C renal)	TGI (CCRF-CEM leukemia)	GI50 (SNB-19 CNS)	GI50 (EKVX NSCLC)	GI50 (SR leukemia)	GI50 (HOP-92 NSCLC)	GI50 (CCRF-CEM leukemia)	GI50 (UO-31 renal)	GI50 (BT-549 breast)	GI50 (UACC-62 melanoma)	GI50 (OVCAR-5 ovarian)	GI50 (SN12C renal)
O=P(O)(O)OP(=O)(O)O	> 100 µM	> 100 µM	> 100 µM	> 100 µM	> 100 µM	> 100 µM	> 100 µM	> 100 µM	> 100 µM	> 100 µM	–	–	–	–	–	–	–	–	–	–
NC(CCc1ccccc1)(C(=O)O)c1ccccc1 (configuration not stated)	> 100 µM	> 100 µM	> 100 µM	> 100 µM	> 100 µM	> 100 µM	> 100 µM	> 100 µM	> 100 µM	> 100 µM	–	–	–	–	–	–	–	–	–	–
COC(=O)c1c(O)ccc2c1c1c(n2Cc2ccccn2)C(=O)c2ccccc2C1	> 100 µM	> 100 µM	> 100 µM	> 100 µM	–	> 100 µM	> 100 µM	–	> 100 µM	> 100 µM	–	–	–	–	–	–	–	–	–	–
CC(Br)C(=O)c1ccc2cc(Br)c3ccccc3c2c1 (configuration not stated)	32 µM	32.7 µM	28.7 µM	28.7 µM	28.9 µM	21.2 µM	31.4 µM	30.8 µM	23.3 µM	14.6 µM	–	–	–	–	–	–	–	–	–	–
CCOc1cc(NC(C)=O)ccc1C(=O)N/N=C/c1ccco1	–	–	> 100 µM	> 100 µM	> 100 µM	31.3 µM	> 100 µM	> 100 µM	> 100 µM	> 100 µM	–	–	–	–	–	–	–	–	–	–
CCCCCCOC(=O)C(N)Cc1ccc(OC)cc1 (configuration not stated)	> 100 µM	> 100 µM	> 100 µM	> 100 µM	> 100 µM	> 100 µM	> 100 µM	> 100 µM	> 100 µM	> 100 µM	–	–	–	–	–	–	–	–	–	–
Cc1cc(N2CCOCC2)nc(N(CCCNc2ccnc3cc(Cl)ccc23)Cc2ccc3c(c2)OCO3)n1	–	35.7 µM	–	–	5.55 µM	0.593 µM	–	3.98 µM	–	2.1 µM	4.18 µM	2.29 µM	0.186 µM	1.56 µM	0.355 µM	–	–	–	–	–
CN(C)C/C=C(/c1ccc(Br)cc1)c1cccnc1	> 100 µM	> 100 µM	> 100 µM	39.1 µM	> 100 µM	> 100 µM	> 100 µM	> 100 µM	> 100 µM	–	–	–	–	–	–	–	–	–	–	–
CCN(CC)/[N+]([O-])=N/OC	> 100 µM	> 100 µM	–	> 100 µM	> 100 µM	> 100 µM	> 100 µM	> 100 µM	> 100 µM	> 100 µM	–	–	–	–	–	–	–	–	–	–
Cc1cc(O)c2c(c1O)C(=O)c1c(O)ccc(O)c1C2=O	–	> 100 µM	> 100 µM	> 100 µM	> 100 µM	> 100 µM	> 100 µM	> 100 µM	> 100 µM	> 100 µM	–	–	–	–	–	–	–	–	–	–
CC(C)(C)c1ccc(O)c(Br)c1	> 100 µM	> 100 µM	> 100 µM	> 100 µM	> 100 µM	> 100 µM	> 100 µM	–	> 100 µM	> 100 µM	–	–	–	–	–	–	–	–	–	–
CC(C)c1ccc2c(c1)[C@@]1(C)CC[C@H](C)C(C)(C)C1CC2 (some centres not stated)	> 100 µM	35.3 µM	35 µM	29.9 µM	35.2 µM	67.5 µM	52.6 µM	36.3 µM	31.8 µM	47.7 µM	–	–	–	–	–	–	–	–	–	–
O=C(CSc1nc2ccc(Cl)cc2c(=O)n1-c1ccccc1)N=Nc1c(O)[nH]c2ccc(F)cc12	0.411 µM	10.5 µM	4.11 µM	7.1 µM	14.4 µM	–	9.01 µM	8.51 µM	4.67 µM	6.34 µM	–	–	–	–	–	–	–	–	–	–
Clc1ccc(NCc2nnc(COc3ccc(OCc4nnc(CNc5ccc(Cl)cc5)o4)c(Cl)c3)o2)cc1	> 100 µM	> 100 µM	> 100 µM	> 100 µM	> 100 µM	13.6 µM	> 100 µM	83.5 µM	> 100 µM	44.8 µM	–	–	–	–	–	–	–	–	–	–
C/C(=C\CNc1ncnc2nc(Cl)[nH]c12)CO	> 100 µM	> 100 µM	–	–	> 100 µM	> 100 µM	> 100 µM	> 100 µM	> 100 µM	> 100 µM	–	–	–	–	–	–	–	–	–	–
CCOC(=O)C(C)OC(=O)c1ccc(C)cc1 (configuration not stated)	> 100 µM	> 100 µM	–	> 100 µM	> 100 µM	> 100 µM	> 100 µM	> 100 µM	> 100 µM	> 100 µM	–	–	–	–	–	–	–	–	–	–
NCCCCN	> 100 µM	> 100 µM	> 100 µM	> 100 µM	> 100 µM	> 100 µM	> 100 µM	> 100 µM	–	> 100 µM	–	–	–	–	–	–	–	–	–	–
COc1cccc(/C=N/[N-]C(N)=O)c1[O-].[Cu+2].[OH3+].c1cnc2c(c1)ccc1cccnc12	38.2 µM	34.2 µM	–	22.3 µM	34.4 µM	> 100 µM	> 100 µM	18.2 µM	> 100 µM	66.2 µM	–	–	–	–	–	–	–	–	–	–
COC(=N)C(C)C	> 100 µM	> 100 µM	–	> 100 µM	–	> 100 µM	> 100 µM	> 100 µM	> 100 µM	> 100 µM	–	–	–	–	–	–	–	–	–	–
C[C@H](Nc1ccc(C#N)n(C)c1=O)c1cc2cc(Cl)ccc2[nH]c1=O	> 100 µM	> 100 µM	70.1 µM	77.6 µM	> 100 µM	> 100 µM	> 100 µM	37.3 µM	> 100 µM	> 100 µM	32.5 µM	21.1 µM	27.7 µM	2.8 µM	24.5 µM	17.6 µM	12.2 µM	20.1 µM	66.6 µM	26.7 µM
CCOC(=O)C(=CNC(Cc1c[nH]c2ccccc12)C(=O)OC)C(=O)OCC (configuration not stated)	> 100 µM	> 100 µM	–	> 100 µM	> 100 µM	–	–	> 100 µM	> 100 µM	> 100 µM	–	–	–	–	–	–	–	–	–	–
O=CC(O)C(O)C(O)COc1cc(CO)cc2c1C(=O)c1ccccc1C2=O (configuration not stated)	> 100 µM	> 100 µM	–	> 100 µM	> 100 µM	> 100 µM	> 100 µM	> 100 µM	> 100 µM	> 100 µM	–	–	–	–	–	–	–	–	–	–
C=C1CCCC(C)(C)[C@@H]1CC/C(C)=C/Cn1c2cccc(=O)c-2nc2ccccc21	–	60.2 µM and 15.8 µM	–	2.47 µM	11.4 µM	–	–	–	–	13 µM	9.54 µM	–	–	22.7 µM	–	3.91 µM	–	–	27.1 µM	5.57 µM
CC(C)(C)OC(=O)N1C(C2=COc3ccccc3O2)=COc2cccnc21	3.1 µM	–	5.42 µM	3.17 µM	4.03 µM	5.9 µM	3.4 µM	3.9 µM	3.37 µM	–	–	–	–	–	–	–	–	–	–	–
